Some results are limits rather than exact numbers.

Usually IC50 stands for the midpoint of a concentration-inhibition curve. The low end stands for greater potency in that assay, the high end for weaker potency in that assay.

Chain of human PD-L1 / Human PD-1 (Q9NZQ7 19-239): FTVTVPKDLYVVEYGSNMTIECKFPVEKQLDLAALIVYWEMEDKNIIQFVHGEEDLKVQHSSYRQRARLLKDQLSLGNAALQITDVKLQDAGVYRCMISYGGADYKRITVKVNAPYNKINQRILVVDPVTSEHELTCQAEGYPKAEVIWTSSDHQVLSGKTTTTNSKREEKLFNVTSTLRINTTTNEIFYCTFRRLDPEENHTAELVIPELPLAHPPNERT

In the assay the target is human PD-L1 / Human PD-1 (Homo sapiens (Human), UniProt Q9NZQ7). The assay is described as follows: Enzyme-Linked Immunosorbent Assay (ELISA), PD-1/PD-L1 binding. To be noted: plates coated with human PD-L1, biotinylated human PD-1 added. As to the method:
96 Well plates were coated with 1 μg/mL of human PD-L1 (obtained from R&D) in PBS overnight at 4′° C. The wells were then blocked with 2% BSA in PBS (W/V) with 0.05% TWEEN-20 for 1 hour at 37′° C. The plates were washed 3 times with PBS/0.05% TWEEN-20 and the compounds were serial diluted (1:5) in dilution medium and added to the ELISA plates. Human PD-1 and biotin 0.3 μg/mL (ACRO Biosystems) were added and incubated for 1 hour at 37° C. then washed 3 times with PBS/0.05% TWEEN-20. A second block was performed with 2% BSA in PBS (WNV)/0.05% TWEEN-20 for 10 min at 37° C. and the plates were washed 3 times with PBS/0.05% TWEEN-20. Streptavidin-HIRP was added for 1 hour at 37° C. then the plates were washed 3 times with PBS/0.05% TWEEN-20. TMB substrate was added and reacted for 20 min at 37° C. A stop solution (2 N aqueous H2SO4) was added. The absorbance was read at 450 nm using a micro-plate spectrophotometer.
`COc1cc(-c2cccc(-c3cccc(-c4cc(F)c(CCN)c(OC)c4)c3C)c2C)cc(F)c1CN` [Compd 1.039] had an IC50 of less than 1 µM.
In the case of `COc1ccc(-c2cccc(-c3cc(F)c(CN)c(OC)c3)c2C)c(F)c1` [Compd 1.030] it was 1 to 10 µM; in that of `COc1cc(-c2cccc(-c3cccc(-c4cc(F)c(CN)c(OC)c4)c3C)c2C)ccc1CN` [Compd 1.036], less than 1 µM.
In the case of `Cc1ccccc1-c1cccc(-c2ccc3c(c2)CCNC3)c1C` [Compd 1.117, 6-(2,2′-dimethyl-[1,1′-biphenyl]-3-yl)-1,2,3,4-tetrahydroisoquinoline], the IC50 is 1 to 10 µM.
`Cc1c(OCCCN2CCC(F)CC2)cccc1-c1cccc(-c2ccc3c(c2)OCCNC3)c1C` [Compd 1.080] returned an IC50 of less than 1 µM.
In the case of `COc1cc(-c2cccc(-c3cccc(OCCCN4[C@H](C)CC[C@H]4C)c3C)c2C)ccc1CN(C)C` [Compd 1.073] it was less than 1 µM; in that of `Cc1c(-c2ccc3c(c2)CCNC3)cccc1-c1ccc2c(c1)OCCO2` [Compd 1.126], less than 1 µM.
Next, `Cc1c(OCCCN2[C@H](C)CC[C@H]2C)cccc1-c1cccc(-c2ccc(C(C)(C)N)cc2)c1C` [Compd 1.119]: less than 1 µM.
In the case of `Cc1c(OCCCN2CCC2(C)C)cccc1-c1cccc(-c2ccc3c(c2)CNCCC3)c1C` [Compd 1.123] it was less than 1 µM; in that of `Cc1c(OCCCN2CCC(C)(F)CC2)cccc1-c1cccc(-c2ccc3c(c2)CCNC3)c1C` [Compd 1.104], less than 1 µM; in that of `COc1cc(-c2cccc(-c3ccc4c(c3C)CNCC4)c2C)cc(F)c1CNCCO` [Compd 1.020], 1 to 10 µM.
Compound `COc1cc(-c2cccc(-c3cccc(OCCCN4[C@H](C)CC[C@H]4C)c3C)c2C)ccc1CNCCCC(=O)O` [Compd 1.066] came in with an IC50 of less than 1 µM.

For the origin of these results see patent US11485708B2, “Compounds for treatment of PD-L1 diseases” (CHEMOCENTRYX, INC., priority 2019, dated 2022).
